Test results reported in US20240408116A1, “COMPOSITIONS FOR ENHANCING SEXUAL PLEASURE WITH REDUCED PHAR[…] OF PDE5 INHIBITOR” (priority 2023, published 2024).

Tested on: male participants
Test: Male participants rated strength of erections and orgasms on a scale of 1 to 10 after ingesting PDE5 inhibitor and cannabis/THC
Assay type: in vivo, human

Measured: PDE5 inhibiting effect of THC taken alone

Experimental: Male participants rated the strength of their erections and orgasms, and female participants rated the strength of their threshold desire, arousal and orgasms, on a scale of 1 to 10.
This first time, the subject took the full prescription dose of sildenafil (100 mg) in pill form together with an infused cannabis edible containing 20 mg of THC.
The subject in Examples 1 and 2 further reduced the dosage of sildenafil to 40 mg, 30 mg, and 20 mg in stages, together with cannabis dosages that delivered 20 mg, 15 mg, or 10 mg of THC.
A test subject consumed ingestible dosage forms of cannabis and sildenafil. This first time, the subject took 50% of the full prescription dose of sildenafil (50 mg) in pill form together with an infused cannabis edible containing 20 mg of THC.
The subject in Example 4 further reduced the dosage of sildenafil to 40 mg and used the same cannabis dosage that delivered 20 mg of THC.
The subject in Examples 4 and 5 further reduced the dosage of sildenafil to 30 mg, 20 mg, and 10 mg in stages, together with cannabis dosages that delivered 20 mg, 15 mg, or 10 mg of THC.
A test subject consumed ingestible dosage forms of cannabis and sildenafil. This first time, the subject took 60% of the full prescription dose of sildenafil (60 mg) in pill form together with an infused cannabis edible containing 25 mg of THC.
The test subject in Example 7 further reduced the dosage of sildenafil to 40 mg and used a cannabis dosage that delivered 20 mg of THC.
The subject in Examples 7 and 8 further reduced the dosage of sildenafil to 30 mg, 20 mg, and 10 mg in stages, together with cannabis dosages that delivered 20 mg, 15 mg, or 10 mg of THC.

CCCCCc1cc(O)c2c(c1)OC(C)(C)[C@@H]1CCC(C)=C[C@@H]21 [THC, tetrahydrocannabinol]
no noticeable PDE5 inhibiting effect: Example 1: person | Example 4: person | Example 7: person | Example 10: person
